US9592223B2, “Small molecule inhibitors of MALT1” (Cornell University, priority 2012, dated 2017)
Entries after “also recorded” stand apart in the source; their conditions may differ. Where two headings read alike, the source gives them in different places.

Columns and labels:
[1] = tested on: TMD8 cells; assay: Growth inhibition, ATP-based luminescent assay; format: cell-based; conditions: Homo sapiens
Protocol: Cell proliferation was determined by ATP quantification using a luminescent method (CellTiter-Glo, Promega, Madison, Wis.) and Trypan blue dye-exclusion (Sigma, St. Louis, Mo.). Cell viability in drug-treated cells was normalized to their respective controls (fractional viability) and results are given as 1-fractional viability. CompuSyn software (Biosoft, Cambridge, UK) was used to determine drug concentrations inhibiting fractional growth compared to controls.
DLBCL cell lines were grown in exponential growth conditions during the 48 hr of treatment. Cell proliferation was determined by ATP quantification using a luminescent method (CellTiter-Glo, Promega, Madison, Wis.) and Trypan blue dye-exclusion (Sigma, St. Louis, Mo.). Luminescence was measured using the Synergy4 microplate reader (BioTek Instruments, Winooski, Vt.). Standard curves for each cell line were calculated by plotting the cell number (determined by the Trypan blue method) against their luminescence values and number of cells was calculated accordingly. Cell viability in drug-treated cells was normalized to their respective controls (fractional viability) and results are given as 1-fractional viability. […] Experiments were performed in triplicate.

[2] = molecular target: Caspase-3 (Homo sapiens, UniProt P42574); assay: Caspase selectivity; format: biochemical
[3] = tested on: c-REL; assay: c-REL flow cytometry of whole cells or isolated nuclei, HBL-1 cells; format: cell-based, human; conditions: 200 nM MI-2 or 50 μM Z-VRPR-FMK, 24 hr
Protocol: MALT1 mediates c-REL translocation to the nucleus following BCR stimulation (Ferch et al., 2007). […] This selectivity towards c-REL had also been previously shown in MALT1 knockout mice and after MALT1 cleavage inhibition by the MALT1 blocking peptide Z-VRPR-FMK (Ferch et al., 2009; Ferch et al., 2007; Hailfinger et al., 2011).
[…] was studied by flow cytometry. Cells were treated as indicated and total cells or isolated nuclei were prepared and stained for c-REL. Total cells were fixed and permeabilized using the Intrastain kit from Dako (Glostrup, Denmark). For nuclei extraction, cells were resuspended in cold nuclei extraction buffer (320 mM sucrose, 5 mM MgCl2, 10 mM HEPES, 1% Triton X-100 at pH 7.4), incubated for 10 min on ice and washed twice with nuclei wash buffer (320 mM sucrose, 5 mM MgCl2, 10 mM HEPES at pH 7.4, no Triton X-100). Nuclei yield and integrity were confirmed by microscopic examination with trypan blue staining. For labeling, nuclei wash buffer was supplemented with 1% BSA, 0.1% sodium azide and 1:100 c-REL antibody (Cell Signaling). Cells were washed then incubated with Alexa Fluor-488 conjugated secondary antibodies from Invitrogen. Cells were washed again and stained with DAPI followed by flow cytometry.

[4] = Toxicity 1: increasing daily IP doses over 10 days; format: in vivo, C57BL/6 mice; conditions: daily IP 0.05 to 25 mg/kg over 10 days, cumulative 51.1 mg/kg
Excerpt: Brain, heart, lung, liver, kidney, bowel, spleen, thymus and bone marrow tissues were examined. […] Myeloid to erythroid ratio was 4-5:1. Megakaryocytes were normal in number and distribution. There was no fibrosis nor increased number of blasts or lymphocytes. Complete peripheral blood counts, biochemistry and liver function tests were normal (Table 2).

[5] = tested on: primary human non-GCB DLBCL cells; assay: Primary human DLBCL cells ex vivo, non-GCB cases, Trypan blue; format: cell-based; conditions: 0.8 μM, 48 hr
Protocol: After 48 hr exposure, cell number and viability were determined using Trypan blue.
Patient de-identified tissues were obtained in accordance with the guidelines and approval of the Weill Cornell Medical College Review Board. Patient samples were processed as previously described (Cerchietti et al., 2010). Briefly, single cell suspensions from lymph node biopsies were obtained by physical disruption of tissues followed by cell density gradient separation (Fico/Lite LymphoH, Atlanta Biologicals, Lawrenceville, Ga.). Cell number and viability were determined by Trypan blue exclusion. Primary DLBCL cells were cultured in 96-well plates. Cells were grown in advanced RPMI medium with 20% FBS supplemented with antibiotics for 48 hours. […] After 48 hr of exposure, viability was determined by using Trypan blue (Sigma). All samples were normalized to their own replicate control. Statistical significance was calculated using paired T-test.

Sequence of Caspase-3 (P42574 29-175 limits assumed, species assumed): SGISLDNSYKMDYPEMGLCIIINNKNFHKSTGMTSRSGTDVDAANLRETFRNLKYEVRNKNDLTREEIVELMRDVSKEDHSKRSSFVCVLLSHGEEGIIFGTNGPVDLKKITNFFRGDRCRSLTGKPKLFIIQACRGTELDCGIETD
Sequence of Caspase-3 (P42574 176-277 limits assumed, species assumed): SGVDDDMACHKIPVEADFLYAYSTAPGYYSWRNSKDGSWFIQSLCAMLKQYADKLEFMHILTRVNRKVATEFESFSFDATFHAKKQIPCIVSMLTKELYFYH

Question: For `COCCOc1nc(-c2ccc(Cl)c(Cl)c2)n(-c2ccc(NC(=O)CCl)cc2)n1` [MI-2], which GI50 ([1]; TMD8, read-out: GI50 concentration) is on record?
Answer: 500 nM

Question: And the GI50 ([1]; TMD8, single dose, 48 hr, read-out: GI50)?
Answer: 500 nM

Question: What about the “activity against Caspase-3” value [2] of the same molecule?
Answer: little activity

Question: What about the “nuclear c-REL” value ([3]; isolated nuclei) of the same molecule?
Answer: reduced nuclear c-REL

Question: What about the “whole cell c-REL” value ([3]; whole cells) of the same molecule?
Answer: without affecting whole cell levels

Question: And the “physical indicators of sickness” value [4]?
Answer: no evidence of lethargy, weight loss

Question: What about the “response of cell number and viability” value [5] of the same molecule?
Answer: two of the non-GCB cases responded; also recorded: One of the non-GCB did not respond
